Reference: BigSolDB 2.1

NC(=O)N1c2ccccc2C=Cc2ccccc21
Conditions | solubility (mole fraction)
in chloroform, 278.15 K | 0.0577
in chloroform, 288.65 K | 0.0627
in chloroform, 297.55 K | 0.0679
in chloroform, 307.15 K | 0.0756
in chloroform, 318.95 K | 0.086
in chloroform, 327.95 K | 0.0968
in cyclohexylamine, 287.25 K | 0.0149
in cyclohexylamine, 302.35 K | 0.0193
in cyclohexylamine, 317.65 K | 0.0259
in cyclohexylamine, 332.85 K | 0.0353
in cyclohexylamine, 348.15 K | 0.05
in cyclohexylamine, 366.15 K | 0.0657
in ethyl acetate, 281.35 K | 0.00272
in ethyl acetate, 298.55 K | 0.00436
in ethyl acetate, 306.55 K | 0.00548
in ethyl acetate, 314.05 K | 0.0068
in ethyl acetate, 326.85 K | 0.00959
in ethyl acetate, 346.65 K | 0.0142
in ethylene glycol, 279.15 K | 0.00098
in ethylene glycol, 288.55 K | 0.00243
in ethylene glycol, 316.85 K | 0.00861
in ethylene glycol, 335.25 K | 0.0189
in ethylene glycol, 346.55 K | 0.0294
in ethylene glycol, 356.95 K | 0.0429
in methyl acetate, 281.95 K | 0.00521
in methyl acetate, 292.35 K | 0.00665
in methyl acetate, 301.85 K | 0.00843
in methyl acetate, 311.55 K | 0.0109
